Patent US8158631B2, “Heterocyclic antiviral compounds” (Roche Palo Alto LLC, priority 2009, dated 2012)
pIC50: −log10 of the molar value.

How the values were obtained:
[1] = target: T1, HCV polymerase (NS5B570n-Con1) (Hepatitis C virus genotype 1b, UniProt Q9WMX2); experiment: HCV NS5B RNA polymerase activity (HCV Polymerase Assay); format: biochemical, HCV Con1 strain
T1 construct: contains a 21 amino acid deletion at the C-terminus relative to the full-length HCV polymerase; made in house; host or cells: E. coli strain BL21(DE) pLysS, plasmid pET17b
Protocol: The enzymatic activity of HCV polymerase (NS5B570n-Con1) was measured as the incorporation of radiolabeled nucleotide monophosphates into acid insoluble RNA products. Unincorporated radiolabeled substrate was removed by filtration and scintillant was added to the washed and dried filter plate containing radiolabeled RNA product. The amount of RNA product generated by NS5B570-Con1 at the end of the reaction was directly proportional to the amount of light emitted by the scintillant.
The N-terminal 6-histidine tagged HCV polymerase, derived from HCV Con1 strain, genotype 1b (NS5B570n-Con1) contains a 21 amino acid deletion at the C-terminus relative to the full-length HCV polymerase and was purified from E. coli strain BL21(DE) pLysS. The construct, containing the coding sequence of HCV NS5B Con1 (GenBank accession number AJ242654) was inserted into the plasmid construct pET17b, downstream of a T7 promoter expression cassette and transformed into E. coli. A single colony was grown overnight as a starter culture and later used inoculate 10 L of LB media supplemented with 100 μg/mL ampicillin at 37° C. Protein expression was induced by the addition of 0.25 mM isopropyl-β-D-thiogalactopyranoside (IPTG) when optical density at […] of the culture was between 0.6 and 0.8 and cells were harvested after 16 to 18 h at 30° C. NS5B570n-Con1 was purified to homogeneity using a three-step protocol including subsequent column chromatography on Ni-NTA, SP-Sepharose HP and Superdex 75 resins.
Each 50 μL enzymatic reaction contained 20 nM RNA template derived from the complementary sequence of the Internal Ribosome Entry Site (cIRES), 20 nM NS5B570n-Con1 enzyme, 0.5 μCi of tritiated UTP (Perkin Elmer catalog no. TRK-412; specific activity: 30 to 60 Ci/mmol; stock solution concentration from 7.5×10^−5 M to 20.6×10^−6 M), 1 μM each ATP, CTP, and GTP, 40 mM Tris-HCl pH 8.0, 40 mM NaCl, 4 mM DTT (dithiothreitol), 4 mM MgCl2, and 5 μL of compound serial diluted in DMSO. Reaction mixtures were assembled in 96-well filter plates (cat #MADVNOB, Millipore Co.) and incubated for 2 h at 30° C. Reactions were stopped by addition of 10% final (v/v) trichloroacetic acid and incubated for 40 min at 4° C. Reactions were filtered, washed with 8 reaction volumes of 10% (v/v) trichloroacetic acetic acid, 4 reaction volumes of 70% (v/v) ethanol, air dried, and 25 μL of scintillant (Microscint 20, Perkin-Elmer) was added to each reaction well.
The amount of light emitted from the scintillant was converted to counts per minute (CPM) on a Topcount® plate reader (Perkin-Elmer, Energy Range: Low, Efficiency Mode Normal, Count Time: 1 min, Background Subtract: none, Cross talk reduction: Off).
Data was analyzed in Excel® (Microsoft®) and ActivityBase® (Idbs®). The reaction in the absence of enzyme was used to determine the background signal, which was subtracted from the enzymatic reactions. Positive control reactions were performed in the absence of compound, from which the background corrected activity was set as 100% polymerase activity. All data was expressed as a percentage of the positive control.
The compound concentration at which the enzyme-catalyzed rate of RNA synthesis was reduced by 50% (IC50) was calculated by fitting equation (i) to the data where“Y”
[formula] corresponds to the relative enzyme activity (in %), “% Min” is the residual relative activity at saturating compound concentration, “% Max” is the relative maximum enzymatic activity, “X” corresponds to the compound concentration, and “S” is the Hill coefficient (or slope).

[2] = test system: HCV replicon cells (2209-23), genotype 1b replicon in Huh7 cells; experiment: HCV replicon assay (Renilla luciferase reporter); format: cell-based, HCV genotype 1b; human hepatoma Huh7 cells; details: Hepatitis C virus, Huh-7, 72 h, 2209-23 cells, three days incubation
in vitro = details: human
HCV = details: cited from earlier work

With COc1c(/C=C/c2ccc(NS(C)(=O)=O)cc2)cc(N2CCCNC2=O)cc1C(C)(C)C [Compound I-2, N-(4-{(E)-2-[3-tert-Butyl-2-methoxy-5-(2-oxo-tetrahydro-pyrimidin-1-yl)-phenyl]-vinyl}-phenyl)-methanesulfonamide] the pIC50 [1] was 8.00.
In the case of COc1c(CCc2ccc(NS(C)(=O)=O)cc2)cc(N2CCCNC2=O)cc1C(C)(C)C [Compound I-3, N-(4-{2-[3-tert-Butyl-2-methoxy-5-(2-oxo-tetrahydro-pyrimidin-1-yl)-phenyl]-ethyl}-phenyl)-methanesulfonamide], the melting point was 244 to 246 °C and the pIC50 [1] was 7.89.
Work on COc1c(CCc2ccc(NS(C)(=O)=O)cc2)cc(N2CCNC2=O)cc1C(C)(C)C [Compound I-4] yielded a melting point of 229 to 231 °C and a pIC50 [1] of 7.49.
For COc1c(/C=C/c2ccc(NS(C)(=O)=O)cc2)cc(N2CCC(C)(C)NC2=O)cc1C(C)(C)C [Compound I-5, N-(4-{(E)-2-[3-tert-Butyl-5-(4,4-dimethyl-2-oxo-tetrahydro-pyrimidin-1-yl)-2-methoxy-phenyl]-vinyl}-phenyl)-methanesulfonamide], the pIC50 [2] was 7.72, the pIC50 [1] was 9.00 and the CC50 (in vitro) was 13.8 µM.
COc1c(CCc2ccc(NS(C)(=O)=O)cc2)cc(N2C(=O)CCNC2=O)cc1C(C)(C)C [Compound I-6, N-(4-{2-[3-tert-Butyl-5-(2,6-dioxo-tetrahydro-pyrimidin-1-yl)-2-methoxy-phenyl]-ethyl}-phenyl)-methanesulfonamide] showed a pIC50 [1] of 7.20.
Molecule COc1c(CCc2ccc(NS(C)(=O)=O)cc2)cc(N2C(=O)CNC2=O)cc1C(C)(C)C [Compound I-7, N-(4-{2-[3-tert-Butyl-5-(2,5-dioxo-imidazolidin-1-yl)-2-methoxy-phenyl]-ethyl}-phenyl)-methanesulfonamide] has a melting point of 230 to 231 °C and a pIC50 [1] of 7.82.
For COc1c(/C=C/c2ccc(NS(C)(=O)=O)cc2)cc(N2CCCCC2=O)cc1C(C)(C)C [Compound I-8, N-(4-{(E)-2-[3-tert-Butyl-2-methoxy-5-(2-oxo-piperidin-1-yl)-phenyl]-vinyl}-phenyl)-methanesulfonamide], the melting point was 247 to 249 °C and the pIC50 [1] was 7.80.
COc1c(/C=C/c2ccc(NS(C)(=O)=O)cc2)cc(-n2ccccc2=O)cc1C(C)(C)C [Compound I-9, N-(4-{(E)-2-[3-tert-Butyl-2-methoxy-5-(2-oxo-2H-pyridin-1-yl)-phenyl]-vinyl}-phenyl)-methanesulfonamide] gave a melting point of 254 to 256 °C and a pIC50 [1] of 9.00.
COc1c(/C=C/c2ccc(NS(C)(=O)=O)cc2)cc(-n2cc(F)ccc2=O)cc1C(C)(C)C [Compound I-10] gave a melting point of 248 to 250 °C and a pIC50 [1] of 8.30.
With COc1c(/C=C/c2ccc(NS(C)(=O)=O)cc2)cc(-n2ncccc2=O)cc1C(C)(C)C [Compound I-11] the melting point was 260 to 262 °C and the pIC50 [1] was 9.42.
For COc1c(/C=C/c2ccc(NS(C)(=O)=O)cc2)cc(-n2cnccc2=O)cc1C(C)(C)C [Compound I-12], the melting point was 202 to 204 °C and the pIC50 [1] was 9.00.
In the case of COC(=O)c1cc(NS(C)(=O)=O)ccc1/C=C/c1cc(-n2ccncc2=O)cc(C(C)(C)C)c1OC [Compound I-15, 2-{(E)-2-[3-tert-Butyl-2-methoxy-5-(2-oxo-2H-pyrazin-1-yl)-phenyl]-vinyl}-5-methanesulfonylamino-benzoic acid methyl ester], the pIC50 [1] was 9.00.
Work on COc1c(/C=C/c2ccc(NS(C)(=O)=O)cc2C(=O)O)cc(-n2ccncc2=O)cc1C(C)(C)C [Compound I-16] yielded a melting point of 176 to 179 °C and a pIC50 [1] of 9.41.
COc1c(/C=C/c2ccc(NS(C)(=O)=O)cc2CO)cc(-n2ccncc2=O)cc1C(C)(C)C [Compound I-17, N-(4-{(E)-2-[3-tert-Butyl-2-methoxy-5-(2-oxo-2H-pyrazin-1-yl)-phenyl]-vinyl}-3-hydroxymethyl-phenyl)-methanesulfonamide] showed a melting point of 238 to 240 °C and a pIC50 [1] of 9.31.
For COc1c(/C=C/c2ccccc2C(=O)O)cc(-n2ccccc2=O)cc1C(C)(C)C [Compound I-18], the pIC50 [1] was 8.30.
Molecule COc1c(/C=C/c2ccccc2C(=O)O)cc(-n2ccncc2=O)cc1C(C)(C)C [Compound I-19, 2-{(E)-2-[3-tert-Butyl-2-methoxy-5-(2-oxo-2H-pyrazin-1-yl)-phenyl]-vinyl}-benzoic acid] has a pIC50 [1] of 8.70.
For COc1c(CCc2ccc(NS(C)(=O)=O)cc2)cc(N2CCCS2(=O)=O)cc1C(C)(C)C [Compound I-20], the melting point was 83 to 86 °C and the pIC50 [1] was 7.08.
With COc1c(/C=C/c2ccc(NS(C)(=O)=O)cc2C(=O)O)cc(N2CCCNC2=O)cc1C(C)(C)C [Compound I-21] the melting point was 275 to 278 °C and the pIC50 [1] was 9.64.
COc1c(-c2cc3ccc(NS(C)(=O)=O)cc3c(=O)o2)cc(-n2ccncc2=O)cc1C(C)(C)C [Compound I-22] showed a melting point of 272 to 275 °C and a pIC50 [1] of 8.52.
For COc1c(/C=C/c2ccc(NS(C)(=O)=O)cc2)cc(-n2ccc(=O)[nH]c2=O)c2c1C(C)(C)CO2 [Compound I-23, N-(4-{(E)-2-[7-(2,4-Dioxo-3,4-dihydro-2H-pyrimidin-1-yl)-4-methoxy-3,3-dimethyl-2,3-dihydro-benzofuran-5-yl]-vinyl}-phenyl)-methanesulfonamide], the melting point was 285 to 288 °C and the pIC50 [1] was 9.43.
COc1c(-c2nc3cc(NS(C)(=O)=O)ccc3o2)cc(N2CCCNC2=O)cc1C(C)(C)C [Compound I-24, N-{2-[3-tert-Butyl-2-methoxy-5-(2-oxo-tetrahydro-pyrimidin-1-yl)-phenyl]-benzooxazol-5-yl}-methanesulfonamide] gave a pIC50 [1] of 7.20.
In the case of COc1c(CCc2ccc(NS(C)(=O)=O)cc2)cc(N2C(=O)NC(C)C2=O)cc1C(C)(C)C (centres unmarked) [Compound I-25], the melting point was 211 to 212 °C and the pIC50 [1] was 7.72.
With COc1c(/C=C/c2ccc(NS(C)(=O)=O)cc2)cc(N2CCCNS2(=O)=O)cc1C(C)(C)C [Compound I-26, N-(4-{(E)-2-[3-tert-Butyl-5-(1,1-dioxo-1λ^6-[1,2,6]thiadiazinan-2-yl)-2-methoxy-phenyl]-vinyl}-phenyl)-methanesulfonamide] the melting point was 255 to 257 °C and the pIC50 [1] was 8.29.
Work on COc1c(/C=C/c2ccc(NS(C)(=O)=O)cc2)cc(-n2c(C)n[nH]c2=O)cc1C(C)(C)C [Compound I-27, N-(4-{(E)-2-[3-tert-Butyl-2-methoxy-5-(3-methyl-5-oxo-1,5-dihydro-[1,2,4]triazol-4-yl)-phenyl]-vinyl}-phenyl)-methanesulfonamide] yielded a melting point of 289 to 291 °C and a pIC50 [1] of 9.52.
For CC(C)(C)c1cc(/C=C/c2ccc(NS(C)(=O)=O)cc2)cc(N2CCCNC2=O)c1 [I-I, N-(4-{(E)-2-[3-tert-Butyl-5-(2-oxo-tetrahydro-pyrimidin-1-yl)-phenyl]-vinyl}-phenyl)-methanesulfonamide], the melting point was 235 to 237 °C and the pIC50 [1] was 7.82.
In the case of NC(=O)c1ncn([C@@H]2O[C@H](CO)[C@@H](O)[C@H]2O)n1 [ribavirin, 1-((2R,3R,4S,5R)-3,4-Dihydroxy-5-hydroxymethyl-tetrahydro-furan-2-yl)-1H-[1,2,4]triazole-3-carboxylic acid amide], the “patients with serum amino transferase levels reduced to normal” value (HCV; monotherapy) is listed as 40 % of patients and the “effect on serum levels of HCV-RNA” value (HCV; sole treatment / monotherapy) is listed as “does not lower serum levels of HCV-RNA”.
